Laboratory results as given in patent US12338203B2 (TAISHO PHARMACEUTICAL CO., LTD., priority 2019, dated 2025).

Each molecule was assayed against T1, human LPAR1 (Homo sapiens, UniProt Q92633) (assay: Test Example 1: antagonism against response of LPA-induced increase in intracellular Ca2+ concentration in RH7777 cells stably expressing human LPAR1). Settings: RH7777 cells stably expressing human LPAR1; Fluo-4 fluorescence, FDSS6000; read-out: IC50 value (concentration producing 50% antagonism against response of LPA-induced increase in intracellular Ca2+ concentration) (converted).
T1 construct: expressed in transfected cells
T1 sequence (Q92633 whole entry): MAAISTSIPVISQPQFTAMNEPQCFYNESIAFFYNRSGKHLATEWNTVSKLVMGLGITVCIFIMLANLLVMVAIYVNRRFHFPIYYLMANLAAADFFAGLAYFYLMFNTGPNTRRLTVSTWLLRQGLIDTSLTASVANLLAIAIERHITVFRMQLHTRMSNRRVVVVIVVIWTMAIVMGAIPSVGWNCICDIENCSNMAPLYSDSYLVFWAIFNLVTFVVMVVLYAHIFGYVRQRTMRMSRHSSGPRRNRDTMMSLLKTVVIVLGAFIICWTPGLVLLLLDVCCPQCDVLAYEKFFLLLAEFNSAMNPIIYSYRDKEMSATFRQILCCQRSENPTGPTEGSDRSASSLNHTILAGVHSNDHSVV
Format: cell-based
In short: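 RH7777 cells stably transfected with human LPAR1 were preincubated with test compound 30 min at 37 °C in HBSS/20 mM HEPES/probenecid/0.05% BSA buffer, pH 7.4, then LPA-stimulated.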
Work on `COc1cc(Br)cc(C(C)N(CCCCc2ccccc2)C(=O)NC2(C(=O)O)CC(F)(F)C2)c1` (centres unmarked) [Example 5-22] yielded an IC50 of 7.13 nM.
Molecule `CCOc1cc([C@@H](C)N(CCCCc2ccccc2)C(=O)NC2CCC[C@@H]2C(=O)O)cc(OCC)c1C(C)=O` (some centres unmarked) [Example 1-134] has an IC50 of 14.5 nM.
With `CCOc1cc(C(C)N(CCCCc2ccccc2)C(=O)NC2(C(=O)O)CC(F)(F)C2)cc(OCC)c1C1(O)CC1` (centres unmarked) [Example 1-37] the IC50 was 3.45 nM.
With `COc1cc(C(C)N(CCOC(C)c2ccccc2)C(=O)NC2(C(=O)O)CCC2)c(Cl)c(OC)c1C1CC1` (centres unmarked) [Example 5-138] the IC50 was 3.21 nM.
`CCOc1cc([C@@H](C)N(CCCCc2ccccc2)C(=O)NC2(C(=O)O)CCOCC2)cc(OCC)c1C1(O)CC1` [Example 1-153] gave an IC50 of 173 nM.
`CCOc1cc([C@@H](C)N(CCO[C@@H](C)c2ccccc2)C(=O)N[C@]2(C(=O)O)C[C@H](OC)C2)c(Cl)c(OCC)c1C(C)O` (single isomer, unassigned) [Example 5-60] was tested, and the IC50 was 9.05 nM.
`CCOc1cc(C(C)N(CCO[C@@H](C)c2ccccc2)C(=O)N[C@]2(C(=O)O)C[C@@H](OCC)C2)c(Cl)c(OCC)c1C(C)=O` (some centres unmarked) [Example 5-218] was tested, and the IC50 was 1.99 nM.
`CCOc1cc([C@@H](C)N(CCO[C@@H](C)c2ccccc2)C(=O)NC2(C(=O)O)CCOCC2)cc(OCC)c1C(C)O` (single isomer, unassigned) [Example 4-144] was tested, and the IC50 was 8.19 nM.
For `CCOc1cc(C(C)N(CCO[C@@H](C)c2ccccc2)C(=O)NC2(C(=O)O)CC(OCC)C2)c(Cl)c(OCC)c1C1CC1` (some centres unmarked) [Example 5-216], the IC50 was 2.56 nM.
`CCOc1cc(C(C)N(CCCCc2ccccc2)C(=O)NC(Cc2cccnc2)C(=O)O)cc(OCC)c1C` (centres unmarked) [Example 1-10] showed an IC50 of 88.5 nM.
Work on `CCOc1cc([C@@H](C)N(CCO[C@@H](C)c2ccccc2)C(=O)NC2(C(=O)O)CCOCC2)cc(OCC)c1C(C)=O` [Example 4-142] yielded an IC50 of 5.9 nM.
Work on `CCOc1cc([C@@H](C)N(CCC(F)(F)Cc2ccccc2)C(=O)NC2(C(=O)O)CC(OCC)C2)cc(OCC)c1C(C)=O` (some centres unmarked) [Example 4-93] yielded an IC50 of 10.1 nM.
`CCOc1cc(C(C)N(CCCCc2ccccc2)C(=O)NC2(C(=O)O)CC(F)(F)C2)cc(OCC)c1Br` (centres unmarked) [Example 1-42] gave an IC50 of 4.02 nM.
With `CCOc1cc([C@@H](C)N(CCO[C@@H](C)c2ccccc2)C(=O)N[C@]2(C(=O)O)C[C@H](OC)C2)cc(OCC)c1C(C)=O` [Example 4-122] the IC50 was 4.53 nM.
For `CCOc1cc(C(C)N(CCOCc2ccccc2)C(=O)NC2(C(=O)O)CC(OC)C2)cc(OCC)c1C1CC1` (centres unmarked) [Example 5-204], the IC50 was 0.882 nM.
Work on `CCOc1cc([C@@H](C)N(CCO[C@@H](C)c2ccccc2)C(=O)NC2(C(=O)O)CC(OC)C2)c(Cl)c(OCC)c1C(C)O` (single isomer, unassigned) [Example 5-58] yielded an IC50 of 3.82 nM.
In the case of `CCOc1cc([C@@H](C)N(CCC(F)(F)Cc2ccccc2)C(=O)NC2(C(=O)O)CC(OCC)C2)cc(OCC)c1C(C)=O` (some centres unmarked) [Example 4-92], the IC50 is reported as 7.79 nM.
In the case of `CCOc1c(C2CC2)ccc([C@@H](C)N(CCO[C@H](C)c2cccc(Cl)c2)C(=O)NC2(C(=O)O)CCC2)c1C` [Example 4-180], the IC50 is reported as 6.22 nM.
Molecule `CCOc1cc(C(C)N(CCCCc2ccc(F)cc2)C(=O)NC2(C(=O)O)CC(F)(F)C2)cc(OCC)c1C` (centres unmarked) [Example 4-9] has an IC50 of 11.6 nM.
`CCOc1cc([C@@H](C)N(CCC(F)(F)Cc2ccccc2)C(=O)NC2(C(=O)O)CCOCC2)c(Cl)c(OCC)c1C(C)=O` [Example 5-43] was tested, and the IC50 was 22.1 nM.
Work on `CCOc1cc([C@@H](C)N(CCN2Cc3ccccc3C2)C(=O)NC2(C(=O)O)CC(F)(F)C2)cc(OCC)c1C` [Example 4-31] yielded an IC50 of 28.4 nM.
Work on `CC(c1ccc2c(c1)OCCO2)N(CCCCc1ccccc1)C(=O)NC1(C(=O)O)CC(F)(F)C1` (centres unmarked) [Example 5-91] yielded an IC50 of 711 nM.
With `CCNc1cc(C(C)N(CCCCc2ccccc2)C(=O)NC2(C(=O)O)CCS(=O)(=O)CC2)cc(OCC)c1C(C)=O` (centres unmarked) [Example 5-105] the IC50 was 12.2 nM.
For `CCOc1cc(C(C)N(CCOC(C)c2ccccc2)C(=O)NC2(C(=O)O)CCC2)c(C)c(OCC)c1C` (centres unmarked) [Example 5-194], the IC50 was 2.15 nM.
Molecule `CCOc1cc([C@@H](C)N(CCCCc2ccccc2)C(=O)NC2(C(=O)O)CC(OC)C2)c(Cl)c(OCC)c1C(C)=O` (some centres unmarked) [Example 5-48] has an IC50 of 3.77 nM.
`CCOc1cc(C(C)N(CCCCc2ccccc2)C(=O)NC2(C(=O)O)CC(F)(F)C2)c2c(c1)N(CC)CC2` (centres unmarked) [Example 5-97] was tested, and the IC50 was 10.1 nM.
`CCOc1cc([C@@H](C)N(CCO[C@@H](C)c2ccccc2)C(=O)N[C@]2(C(=O)O)C[C@@H](OCC)C2)c(Cl)c(OCC)c1C(C)=O` [Example 5-26, Trans-1-[([(1R)-1-(4-Acetyl-2-Chloro-3,5-Diethoxyphenyl)Ethyl]{2-[(1S)-1-Phenylethoxy]Ethyl}Carbamoyl)Amino]-3-Ethoxycyclobutane-1-Carboxylic Acid] showed an IC50 of 1.46 nM.
`CCOc1cc([C@@H](C)N(CCCCc2ccccc2)C(=O)NC(C(=O)O)C(C)O)cc(OCC)c1C` (some centres unmarked) [Example 1-11] was tested, and the IC50 was 352 nM.
Work on `CCOC1CC(NC(=O)N(CCOCc2ccccc2)C(C)c2cc(OC)c(C(C)=O)c(OC)c2C)(C(=O)O)C1` (centres unmarked) [Example 5-164] yielded an IC50 of 4.84 nM.
For `CCOc1cc([C@@H](C)N(CCO[C@@H](C)c2ccccc2)C(=O)NC2(C(=O)O)CC(F)(F)C2)c(Cl)c(OCC)c1C(C)=O` [Example 5-32], the IC50 was 2.04 nM.
`CCOc1cc([C@@H](C)N(CCCCc2ccccc2)C(=O)NC2(C(=O)O)CC(OC)C2)cc(OCC)c1C1(O)CC1` (some centres unmarked) [Example 1-90] gave an IC50 of 9.18 nM.
Molecule `CCOc1cc([C@@H](C)N(CCOC(C)(C)c2ccccc2)C(=O)NC2(C(=O)O)CC(F)(F)C2)cc(OCC)c1C1CC1` [Example 4-160] has an IC50 of 10.4 nM.
`CCOc1cc([C@@H](C)N(CCCc2ccccn2)C(=O)NC2(C(=O)O)CC(F)(F)C2)cc(OCC)c1C` [Example 4-27] gave an IC50 of 220 nM.
In the case of `CCOc1cc([C@@H](C)N(CCCc2ccccc2F)C(=O)NC2(C(=O)O)CC(F)(F)C2)cc(OCC)c1C` [Example 4-4, 1-({[(1R)-1-(3,5-Diethoxy-4-Methylphenyl)Ethyl][3-(2-Fluorophenyl) Propyl]Carbamoyl}Amino)-3,3-Difluorocyclobutane-1-Carboxylic Acid], the IC50 is reported as 9.64 nM.
Work on `CCOc1cc([C@@H](C)N(CCOCc2ccccc2)C(=O)NC2CC(C(=O)O)C2)c(Cl)c(OCC)c1C(C)=O` (some centres unmarked) [Example 5-37] yielded an IC50 of 292 nM.
`CC(c1ccc(C#N)cc1)N(CCCCc1ccccc1)C(=O)NC1(C(=O)O)CC(F)(F)C1` (centres unmarked) [Example 5-5] gave an IC50 of 39.7 nM.
`CCOc1c(C(C)=O)ccc([C@@H](C)N(CCO[C@@H](C)c2ccccc2)C(=O)N[C@]2(C(=O)O)C[C@@H](OCC)C2)c1C` [Example 4-140] gave an IC50 of 5.67 nM.
For `CCOc1cc([C@@H](C)N(CCCCc2ccccc2)C(=O)NC2(C(=O)O)CC(F)(F)C2)cc(OCC)c1CC` [Example 1-48], the IC50 was 2.47 nM.
For `CCNc1cc(C(C)N(CCCCc2ccccc2)C(=O)NC2(C(=O)O)Cc3ccccc3C2)cc(OCC)c1C(C)=O` (centres unmarked) [Example 5-104], the IC50 was 20.7 nM.
With `CCOc1cc([C@@H](C)N(CCCCc2ccccc2)C(=O)NC2(C(=O)O)CC(F)(F)C2)c(Cl)c(OCC)c1C(C)O` (single isomer, unassigned) [Example 5-53] the IC50 was 2.54 nM.
Work on `COc1cc(C(C)N(CCOC(C)c2ccccc2)C(=O)N[C@]2(C(=O)O)C[C@@H](OC)C2)c(C)c(OC)c1C` (some centres unmarked) [Example 5-160] yielded an IC50 of 4.55 nM.
With `CCOc1cc(C(C)N(CCCCc2ccccc2)C(=O)NC2CC(CC(=O)O)C2)cc(OCC)c1C` (centres unmarked) [Example 1-148] the IC50 was 25.5 nM.
Work on `CCOc1cc(C(C)N(CCOCc2ccccc2)C(=O)NC2(C(=O)O)CC(OC)C2)c(Cl)c(OCC)c1C1CC1` (centres unmarked) [Example 5-200] yielded an IC50 of 0.548 nM.
`CCOc1c(C(C)=O)ccc([C@@H](C)N(CCO[C@H](C)c2ccccc2)C(=O)NC2(C(=O)O)CCOCC2)c1C` [Example 4-159] was tested, and the IC50 was 6.22 nM.
`CCOc1cc(C(C)N(CCCC(F)(F)c2ccccc2)C(=O)NC2(C(=O)O)CC2)cc(OCC)c1C(C)O` (centres unmarked) [Example 4-48] gave an IC50 of 2.55 nM.
For `CCOc1c(C)ccc([C@@H](C)N(CCOC(C)c2ccccc2)C(=O)NC2(C(=O)O)CC(F)(F)C2)c1C` (some centres unmarked) [Example 4-168], the IC50 was 6.29 nM.
In the case of “Trans-1-[([(1R)-1-(4-Acetyl-2,6-Dichloro-3,5-Diethoxyphenyl)Ethyl]{2-[(1S)-1-Phenylethoxy]Ethyl}Carbamoyl)Amino]-3-Ethoxycyclobutane-1-Carboxylic Acid [Example 5-120]”, the IC50 is reported as 11.1 nM.
Molecule `CCOc1cc([C@@H](C)N(CCCCC(C)C)C(=O)NC2(C(=O)O)CC(F)(F)C2)cc(OCC)c1C` [Example 4-2] has an IC50 of 8.34 nM.
Molecule `CCOc1cc([C@@H](C)N(CCO[C@@H](C)c2ccccc2)C(=O)NC2(C(=O)O)CC(OC)C2)cc(OCC)c1C(C)O` (some centres unmarked) [Example 4-125] has an IC50 of 7.11 nM.
With `CCOc1cc([C@@H](C)N(CCO[C@@H](C)c2ccccc2)C(=O)NC2(C(=O)O)CC(OC)C2)cc(OCC)c1C(C)O` (some centres unmarked) [Example 4-124] the IC50 was 5.44 nM.
In the case of `CCOc1cc(C(C)N(CCCCc2ccccc2)C(=O)NC2(C(=O)NS(=O)(=O)N(C)C)CCCC2)cc(OCC)c1C` (centres unmarked) [Example 7-5, 1-({[1-(3,5-Diethoxy-4-Methylphenyl)Ethyl](4-Phenylbutyl) Carbamoyl}Amino)-N-(Dimethylsulfamoyl)Cyclopentane-1-Carboxamide], the IC50 is reported as 272 nM.
`CCOc1cc(C(C)N(CCOCc2ccccc2)C(=O)NC2(C(=O)O)CC(OCC)C2)c(C)c(OCC)c1C1CC1` (centres unmarked) [Example 5-215] gave an IC50 of 1.01 nM.
`Cc1c(OC2CC2)cc(C(C)N(CCCCc2ccccc2)C(=O)NC2(C(=O)O)CC(F)(F)C2)cc1OC1CC1` (centres unmarked) [Example 1-73] was tested, and the IC50 was 7.43 nM.
Work on `CCOc1c(C(C)=O)ccc([C@@H](C)N(CCO[C@H](C)c2ccccc2)C(=O)NC2(C(=O)O)CC(OCC)C2)c1C` (some centres unmarked) [Example 4-157] yielded an IC50 of 3.71 nM.
Molecule `CCOc1cc([C@H](C)N(CCCCc2ccccc2)C(=O)NC2(C(=O)O)Cc3ccccc3C2)cc(OCC)c1C` [Example 1-124, 2-({[(1S)-1-(3,5-Diethoxy-4-Methylphenyl)Ethyl](4-Phenylbutyl) Carbamoyl}Amino)-2,3-Dihydro-1H-Indene-2-Carboxylic Acid] has an IC50 of 237 nM.
`CCOc1c(C(C)=O)ccc([C@@H](C)N(CCO[C@H](C)c2ccccc2)C(=O)NC2(C(=O)O)CC(OC)C2)c1C` (some centres unmarked) [Example 4-154] was tested, and the IC50 was 3.68 nM.
